Measured values published in paper PMC9371265 (PLoS Pathogens, 2022).

Biological target: T1, PrpN (Bacillus anthracis, UniProt A0A6L7HCQ6)
T1 construct: gene GBAA_0570
T1 sequence (A0A6L7HCQ6 1-234): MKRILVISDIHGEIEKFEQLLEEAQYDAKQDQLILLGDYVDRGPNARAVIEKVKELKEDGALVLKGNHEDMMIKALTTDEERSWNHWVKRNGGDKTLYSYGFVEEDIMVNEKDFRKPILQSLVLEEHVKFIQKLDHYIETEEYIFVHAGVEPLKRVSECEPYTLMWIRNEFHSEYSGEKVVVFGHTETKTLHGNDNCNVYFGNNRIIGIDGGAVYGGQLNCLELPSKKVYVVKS

## O=[N+]([O-])c1ccc(OP(=O)(O)O)cc1 [p-nitrophenyl phosphate]
  pNPP hydrolysis, absorbance at 405 nm: determined spectrophotometrically using para-nitrophenyl phosphate-pNPP (Sigma-Aldrich) as substrate
